Source: patent US10398672B2, “Methods and compositions for targeting cancer stem cells” (Whitehead Institute for Biomedical Research, priority 2014, dated 2019)
Read-outs that look alike come from different tables or passages of the source.

Assays:
NAMEC cells [1] = experiment: Treatment of NAMEC cells with cAMP analogs (PKA versus EPAC), morphology; format: cell-based, human; settings: treatment for 12 days, data not shown
HMLE cells = experiment: Dose response to chemotherapeutic drugs, HMLE cells; format: cell-based, human; settings: dose response curves FIGS. 8A and 8B
NAMEC cells [2] = format: cell-based, human; settings: for susceptibility to inhibition by the drug, in contrast to untreated NAMEC cells: NAMEC cells treated with cholera toxin, FIGS. 8A and 8B
E-cadherin/CDH1 promoter = format: cell-based, human
[3] = 5 mg/kg, previously tested in vivo in mice; cited from earlier work
NAMEC cells [4] = format: cell-based, human
NAMEC cells [5] = format: cell-based, human; remark: listed apart in the source
NAMEC cells [6] = format: cell-based, human; remark: listed apart in the source
NAMEC cells [7] = format: cell-based, human; remark: listed apart in the source
NAMEC cells [8] = format: cell-based, human; remark: listed apart in the source

Nc1ncnc2c1nc(Br)n2[C@@H]1O[C@@H]2COP(=O)(O)O[C@H]2[C@H]1O [8-Br-cAMP]
epithelial morphologies displayed by NAMEC cells (NAMEC cells [1]): displayed epithelial morphologies

COc1cccc2c1C(=O)c1c(O)c3c(c(O)c1C2=O)C[C@@](O)(C(=O)CO)C[C@@H]3O[C@H]1C[C@H](N)[C@H](O)[C@H](C)O1 [doxorubicin]
susceptibility to inhibition by the drug (HMLE cells): susceptible | susceptibility to inhibition by the drug (NAMEC cells [2]): highly resistant | susceptibility to inhibition by the drug, in contrast to untreated NAMEC cells (NAMEC cells [2]): more susceptible

C=C[C@@]1(C)CC(=O)[C@]2(O)[C@@]3(C)[C@@H](O)CCC(C)(C)[C@@H]3[C@H](O)[C@H](OC(C)=O)[C@@]2(C)O1 [forskolin]
induce transcription of the E-cadherin reporter compared to the control after normalization to cell number (E-cadherin/CDH1 promoter): 40 fold | relative CDH1 Promoter luciferase activity normalized by cells number: differential activity between non-CSCs and CSC (E-cadherin/CDH1 promoter): around 40 fold | toxicities / side-effects in mice [3]: no reported side-effects | cells expressing the SC-like CD44hiCD24lo marker profile reverted to the non-SC CD44loCD24hi profile (NAMEC cells [4]; NAMEC cells, 100 μg/ml cholera toxin or 10 μM forskolin over 12 days, flow cytometry): 95%

CC(=O)O[C@H]1C(=O)[C@@]2(C)[C@H]([C@H](OC(=O)c3ccccc3)[C@]3(O)C[C@H](OC(=O)[C@H](O)[C@@H](NC(=O)c4ccccc4)c4ccccc4)C(C)=C1C3(C)C)[C@]1(OC(C)=O)CO[C@@H]1C[C@@H]2O [paclitaxel]
susceptibility to inhibition by the drug (HMLE cells): susceptible | susceptibility to inhibition by the drug (NAMEC cells [2]): highly resistant | susceptibility to inhibition by the drug, in contrast to untreated NAMEC cells (NAMEC cells [2]): more susceptible

cholera toxin
ability to induce luciferase expression (validation of the screen) (E-cadherin/CDH1 promoter): induce luciferase expression | E-cadherin expression compared to untreated NAMEC cells (NAMEC cells [5]): gain of E-cadherin expression | relative expression of mesenchymal markers compared to untreated NAMEC cells (NAMEC cells [5]): decrease | invasive properties of NAMEC cells (NAMEC cells [6]): loss | migratory properties of NAMEC cells (NAMEC cells [6]): loss | susceptibility of NAMEC cells to doxorubicin and paclitaxel after induction of MET (NAMEC cells [2]): more susceptible | mammosphere-forming ability (NAMEC cells [7]): complete loss | intracellular cAMP concentration in NAMEC cells (NAMEC cells [8]): elevated | cell morphology after treatment (NAMEC cells [4]): cobblestone-like epithelial morphology | cells expressing the SC-like CD44hiCD24lo marker profile reverted to the non-SC CD44loCD24hi profile (NAMEC cells [4]): 95% | junctional E-cadherin by fluorescent microscopy (NAMEC cells [4]): expressed junctional E-cadherin | mesenchymal marker fibronectin by fluorescence microscopy (NAMEC cells [4]): loss of the mesenchymal marker, fibronectin
